Data as given in patent publication US12486241B2, “Cystine diamide analogs for cystinuria” (Rutgers, The State University of New Jersey, priority 2019, dated 2025).
Counter-ions that a name gives are not always drawn.

Legend:
[1] = in water; cited from earlier work
rats = conditions: cited from earlier work
cell culture = cell culture experiments; cited from earlier work
[2] = L-cystine crystallization inhibition assay (metastable supersaturated L-cystine solution; L-cystine concentration by fluorescence or cyanide-nitroprusside colorimetric assay); conditions: for Ratio (improvement in potency over the control): footnote names L-cystine dimethylester (CDME) as control, LH708 = 1.00; for EC50: test compound in L-cystine supersaturated solution (~3 mM), 25° C. for 72 h, read-out: EC50 (Aqueous Solubility of L-Cystine)
Experimental: Example 21 Preparation of the Metastable Supersaturated Solution of L-Cystine and the Cystallizaiton Inhibition Assay
For the preparation of L-cystine supersaturated solution 70 mg of L-cystine was dissolved in 100 mL of Millipore water (˜3 mM) under reflux at 120° C. for 30 min until the L-cystine was completely dissolved. The supersaturated solution was then allowed to cool slowly with stirring until the oil bath temperature reached 40° C. take about 70 min depending on the lab atmosphere. To determine the L-cystine concentration all test compounds were dissolved in water to form 10 mM stock solution. Five uL of each solution was added to 495 uL L-cystine supersaturated solution. The mixtures were allowed to stand at 25° C. for 72 h. At the end of incubation, the mixtures were centrifuged at 13,000 rpm for 5 min and the supernatants were diluted 10-fold for concentration measurement. To construct the standard curves L-Cystine (2.1 mg) was dissolved in 0.1 M Na2CO3 solution (9 mL) to form a 1 mM solution as a stock solution. Then, 50 uL L-cystine stock solution was diluted to 0.6 mM with 0.1 M Na2CO3 ([…]) solution and to 0.4, 0.2, 0.1, 0.05 mM solution using Millipore water 75, 200, 450 and 950 uL, respectively.
Fluorescence Assay for the Determination of L-Cystine Concentration
10 μL of each L-cystine solutions or test compound diluted mixtures, 100 μL of DTT solution (12.5 mM) in 0.1 M dibasic sodium phosphate solution (1:9), were mixed at r.t. for 10 min, before the addition of 10 μL of iodoacetic acid (100 mM) and continued incubation at r.t. for an additional 15 min. This was then followed by the addition of 20 μL of OPA (100 mM in methanol)/NBC (100 mM in methanol) (1:1). The derivatization was allowed to proceed for 3 min before 3×40 μL of the mixture were placed in a 384-well plate and read at Ex 355 nm/Em 460 nm. The standard curve was repeated for each set of experiments and used to calculate the concentration of L-cystine in each sample.
Cyanide-Nitroprusside Colorimetric Assay for the Determination of L-Cystine Concentration
3×40 μL of each L-cystine solutions or test compound diluted mixtures were placed in a 96-well plate (black, clear bottom). 80 μL of aqueous solution of potassium cyanide (30% w/v) in PBS (pH=7.4) (1:7) was added to each well then the plate was left to shake at 550 rpm for 25 min. 10 μL of aqueous solution of sodium nitroprusside (20% w/v) was added to each well using automated dispenser then the plate was centrifuged immediately at 1500 rpm for 20 sec. Then the UV absorbance was measured at 530 nm using Victor 3 V plate reader. The standard curve was repeated for each plate and used to calculate the concentration of L-cystine in each sample.

| EC50 [2] [nM] | SMILES | Concentration at which crystallization of L-cystine is almost completely inhibited [1] | Dosage demonstrating adverse effects (rats) | Concentration causing loss of cell viability (cell culture) | Ratio (improvement in potency over the control) [2] |
| --- | --- | --- | --- | --- | --- |
| – | COC(=O)[C@@H](N)CSSC[C@H](N)C(=O)OC [CDME, L-cystine dimethylester] | above 2 mg/L | approximately 500 mg/kg per day | approximately 1 mM | – |
| 42.8 ± 0.7 | CN1CCN(C(=O)[C@@H](N)CSSC[C@H](N)C(=O)N2CCN(C)CC2)CC1 [LH708, reference compound] | – | – | – | 1.00 |
| 52.6 ± 0.8 | N[C@@H](CSSC[C@H](N)C(=O)N1CCNCC1)C(=O)N1CCNCC1 [LH1726, L-Cystine bispiperazide tetrahydrochloride] | – | – | – | 0.81 |
| 32 ± 2.5 | CC(C)(C)N1CCN(C(=O)[C@@H](N)CSSC[C@H](N)C(=O)N2CCN(C(C)(C)C)CC2)CC1 [LH1729, L-Cystine bis(N′-tert-butylpiperazide) tetrahydrochloride] | – | – | – | 1.34 |
| 68.8 ± 4.1 | N[C@@H](CSSC[C@H](N)C(=O)N1CCN(C2CC2)CC1)C(=O)N1CCN(C2CC2)CC1 [LH1730, L-Cystine bis(N′-cyclopropylpiperazide) tetrahydrochloride] | – | – | – | 0.62 |
| 39.5 ± 1.3 | N[C@@H](CSSC[C@H](N)C(=O)N1CCN(C2CCCC2)CC1)C(=O)N1CCN(C2CCCC2)CC1 [LH1731, L-Cystine bis(N′-cyclopentylpiperazide) tetrahydrochloride] | – | – | – | 1.08 |
| 500 ± 26.5 | N[C@@H](CSSC[C@H](N)C(=O)N1CCN(c2ccccc2)CC1)C(=O)N1CCN(c2ccccc2)CC1 [LH1732] | – | – | – | 0.09 |
| 108 ± 3.1 | CC1(C)CNCCN1C(=O)[C@@H](N)CSSC[C@H](N)C(=O)N1CCNCC1(C)C [LH1733, L-Cystine bis(2′,2′-dimethylpiperazide) tetrahydrochloride] | – | – | – | 0.40 |
| 163 ± 10.8 | CN(C)CCNC(=O)[C@@H](N)CSSC[C@H](N)C(=O)NCCN(C)C [LH1734, L-Cystine bis (N′,N′-dimethylethyleneamide) tetrahydrochloride] | – | – | – | 0.26 |
| 116 ± 6.1 | N[C@@H](CSSC[C@H](N)C(=O)NCCN1CCCC1)C(=O)NCCN1CCCC1 [LH1735, L-Cystine bis(N′-pyrrolidinoethyleneamide) tetrahydrochloride] | – | – | – | 0.37 |
| 143 ± 9.8 | N[C@@H](CSSC[C@H](N)C(=O)NCCN1CCCCC1)C(=O)NCCN1CCCCC1 [LH1737, L-Cystine bis(N′-piperidinoethyleneamide) tetrahydrochloride] | – | – | – | 0.30 |
| 79.7 ± 7.7 | N[C@@H](CSSC[C@H](N)C(=O)NCCN1CCOCC1)C(=O)NCCN1CCOCC1 [LH1738, L-Cystine bis(N′-morpholinoethyleneamide) tetrahydrochloride] | – | – | – | 0.54 |
| 114 ± 9.4 | CN(C)CCCNC(=O)[C@@H](N)CSSC[C@H](N)C(=O)NCCCN(C)C [LH1739, L-Cystine bis (N′,N′-dimethyl-1′,3′-diaminopropaneamide) tetrahydrochloride] | – | – | – | 0.37 |
| 163 ± 12.5 | N[C@@H](CSSC[C@H](N)C(=O)NCCCN1CCCC1)C(=O)NCCCN1CCCC1 [LH1740, L-Cystine bis(1′-pyrrolidine-3′-aminopropaneamide) tetrahydrochloride] | – | – | – | 0.26 |
| 160 ± 10.6 | N[C@@H](CSSC[C@H](N)C(=O)NCCCN1CCOCC1)C(=O)NCCCN1CCOCC1 [LH1741, L-Cystine bis (1′-morpholine-3′-aminopropaneamide) tetrahydrochloride] | – | – | – | 0.27 |
| 51.2 ± 3.7 | CN(C)C1CCN(C(=O)[C@@H](N)CSSC[C@H](N)C(=O)N2CCC(N(C)C)CC2)CC1 [LH1751, L-Cystine bis(4′-(dimethylamino)-piperidineamide) tetrahydrochloride] | – | – | – | 0.84 |
| 36.5 ± 1.6 | N[C@@H](CSSC[C@H](N)C(=O)N1CCC(N2CCCC2)CC1)C(=O)N1CCC(N2CCCC2)CC1 [LH1752, L-Cystine bis(4′-(1″-Pyrrolidinyl)piperidine) tetrahydrochloride] | – | – | – | 1.17 |
| 25.1 ± 2.4 | N[C@@H](CSSC[C@H](N)C(=O)N1CCC2(CCCN2)CC1)C(=O)N1CCC2(CCCN2)CC1 [LH1753, L-Cystine bis(1,8-Diazaspiro[4.5]decan-8-yl) tetrahydrochloride] | – | – | – | 1.70 |
| 120 ± 13 | N[C@@H](CSSC[C@H](N)C(=O)N1CCCC12CCNCC2)C(=O)N1CCCC12CCNCC2 [LH1754, L-Cystine bis(1,8-Diazaspiro[4.5]decan-1-yl) tetrahydrochloride] | – | – | – | 0.36 |
